Data on 7 compounds can be found in ChEMBL document CHEMBL1136504, “Novel bicyclic furanopyrimidines with dual anti-VZV and -HCMV activity” (Bioorg Med Chem Lett, 2003).

Test [1] relates to HEL. The test can be described thus: Concentration required against HEL cell proliferation. It is filed as functional. Particulars: Homo sapiens.
The test system of test [2] is HEL. The experiment in a line: Minimal cytotoxic concentration required to cause a morphological alteration of human embryonic lung fibroblast(HEL) cell cultures. It is filed as functional.
Test [3] has as its system Human betaherpesvirus 5. The test can be described thus: Antiviral activity evaluated against human cytomegalovirus (HCMV) AD169. It is filed as functional, organism-based.
The test system of test [4] is Human betaherpesvirus 5. The experiment in a line: Antiviral activity evaluated against human cytomegalovirus (HCMV) Davis. It is filed as functional, organism-based.
Test [5] concerns Human alphaherpesvirus 3. The experiment in a line: Concentration required to give 50% inhibition of replication of VZV OKA in tissue culture. It is filed as functional, organism-based.
Test [6] deals with Human alphaherpesvirus 3. The test can be described thus: Antiviral activity evaluated against Varicella Zoster virus (YS). It is filed as functional, organism-based.
Test [7] relates to Human alphaherpesvirus 3. The test can be described thus: Antiviral activity evaluated against thymidine kinase competent(TK+) Varicella Zoster virus (07). It is filed as functional, organism-based.
Test [8] relates to Human alphaherpesvirus 3. The test can be described thus: Antiviral activity evaluated against thymidine kinase deficient(TK-) Varicella Zoster virus (YS). It is filed as functional, organism-based.

pEC50: −log10 of the molar value.

In the case of `CC(C)CCOCCCCCCCCCc1cc2cn([C@H]3C[C@H](O)[C@@H](CO)O3)c(=O)nc2o1`, the cytotoxic concentration (CC50) in the test on HEL [1] is greater than 200 µM. This compound also came in with an MCC in the test on HEL [2] of 10 µM. Moreover, the pEC50 in the test on Human betaherpesvirus 5 [3] is less than 5.30; in the test with Human betaherpesvirus 5 [4] it was 5.30; in the test on Human alphaherpesvirus 3 [5], 7.30; in the test on Human alphaherpesvirus 3 [6], 7.22; in the test with Human alphaherpesvirus 3 [7], less than 5.30; in the test with Human alphaherpesvirus 3 [8], less than 5.30.

For `O=c1nc2oc(CCCCCCCCCOCC3CCCC3)cc2cn1[C@H]1C[C@H](O)[C@@H](CO)O1`, the CC50 in the test on HEL [1] was greater than 200 µM. This compound showed an MCC in the test on HEL [2] of no less than 5 µM. Besides, the pEC50 in the test on Human betaherpesvirus 5 [3] was less than 5.30; in the test on Human betaherpesvirus 5 [4], 5.30; in the test with Human alphaherpesvirus 3 [5], 7.05; with Human alphaherpesvirus 3 [6] it was 7.00; in the test on Human alphaherpesvirus 3 [7] it was less than 5.30; in the test with Human alphaherpesvirus 3 [8] it was less than 5.30.

Take `O=c1nc2oc(CCCCCCCCCOCCCCCl)cc2cn1[C@H]1C[C@H](O)[C@@H](CO)O1`: the CC50 in the test on HEL [1] was greater than 200 µM. The same compound gave an MCC in the test with HEL [2] of no less than 200 µM. Moreover, the negative logarithm of the EC50 (pEC50) with Human betaherpesvirus 5 [3] is 5.01; with Human betaherpesvirus 5 [4], 4.52; in the test with Human alphaherpesvirus 3 [5], 7.30; in the test on Human alphaherpesvirus 3 [6] it was 7.52; in the test on Human alphaherpesvirus 3 [7] it was no more than 3.70; with Human alphaherpesvirus 3 [8], no more than 4.30.

The compound `CCCCCCCOCCc1cc2cn([C@H]3C[C@H](O)[C@@H](CO)O3)c(=O)nc2o1` gave a pEC50 with Human alphaherpesvirus 3 [5] of 5.22.

Compound `CCCCOCCCCCCCCCc1cc2cn([C@H]3C[C@H](O)[C@@H](CO)O3)c(=O)nc2o1` gave a CC50 in the test on HEL [1] greater than 200 µM. Moreover, the MCC in the test on HEL [2] turned out to be 20 µM. For the same compound, the pEC50 with Human betaherpesvirus 5 [3] is less than 5.30; in the test on Human betaherpesvirus 5 [4] it was less than 5.30; with Human alphaherpesvirus 3 [5], 7.70; with Human alphaherpesvirus 3 [6], 7.52; with Human alphaherpesvirus 3 [7], less than 5.30; in the test on Human alphaherpesvirus 3 [8], less than 5.30.

With `CCCCCOCCCCCCCCCc1cc2cn([C@H]3C[C@H](O)[C@@H](CO)O3)c(=O)nc2o1`, in the test on HEL [1], the CC50 was greater than 200 µM. This compound had an MCC in the test on HEL [2] of 10 µM. For the same compound, the pEC50 was less than 5.30 in the test on Human betaherpesvirus 5 [3]; less than 5.30 in the test on Human betaherpesvirus 5 [4]; 8.00 with Human alphaherpesvirus 3 [5]; 7.70 with Human alphaherpesvirus 3 [6]; less than 5.30 with Human alphaherpesvirus 3 [7]; less than 5.30 in the test with Human alphaherpesvirus 3 [8].

For `Nc1nc2c(ncn2COC(CO)CO)c(=O)[nH]1` [GANCICLOVIR], the cytotoxic concentration (CC50) in the test with HEL [1] was greater than 150 µM. In the test on HEL [2], the MCC is greater than 150 µM. Moreover, the pEC50 is 5.40 with Human betaherpesvirus 5 [3] and 5.24 in the test on Human betaherpesvirus 5 [4].

By CC50 is commonly meant the concentration at which the toxic effect on the cells reaches its halfway point. A high value points to better tolerance by the cells. By pEC50 is commonly meant −log10 of the EC50, conventionally taken in molar units. Higher therefore signals a low EC50.
